For test [1], the target named is T1, HCV NS5B (Hepatitis C virus genotype 1b, UniProt Q9WMX2).
T1 construct: fusion protein, of which the carboxyl terminal 21 amino acids were removed to enhance its solubility; His tag (GSHHHHHH); made in house; host or cells: E. coli
The test is described as follows: Inhibition of viral RNA-dependent RNA polymerase (RdRp), in vitro biochemical assay. Details: species or system HCV genotype 1b virus (BB7). Particulars: read-out: HCV pol-BB7 IC50. An outline of the steps:
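Purified recombinant NS5B from a genotype 1b consensus (BB7), His-tagged, E. coli-expressed, with the C-terminal 21 residues deleted. Inhibition of RdRp activity in vitro was measured, and IC50 is the concentration giving 50% inhibition.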

The test system of test [2] is HCV replicon (BB7 sequence) in Huh-7-Clone A cells. The test is described as follows: HCV replicon assay: ELISA of NS5A protein in replicon-containing cells (Inhibition of Viral RNA Replication). It is filed as cell-based. The conditions noted are these: Hepatitis C virus. Put shortly: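 Huh-7-Clone A cells carrying subgenomic BB7 HCV replicon (G418-selectable) incubated 72 h with compound. NS5A protein quantified by cell ELISA: glutaraldehyde fixation, anti-NS5A monoclonal plus HRP secondary, TMB read at OD 650 nm. EC50 derived from 8-point serial dilution dose curve.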

[3] abbreviates: HCV NS5B RdRp, BB7, reported as range class.
[4] abbreviates: HCV replicon, range of EC50, read-out: Replicon.
Where [5] appears, read: purified His-tagged NS5B (BB7), carboxyl terminal 21 amino acids removed.
The mark [6] stands for this setting: Huh-7-Clone A, NS5A ELISA, 72-hour incubation, ranges of EC50, read-out: Replicon.
Where [7] appears, read: HCV NS5B RdRp, BB7, class symbols A-D.
Where [8] appears, read: HCV replicon assay, ranges of EC50, read-out: Replicon.
The mark [9] stands for this setting: HCV NS5B RdRp, BB7, activity class.
Where [10] appears, read: HCV NS5B polymerase, BB7 (genotype 1b), values given as range classes A-D.
The mark [11] stands for this setting: HCV replicon assay, ranges of 50% effective concentration (EC50), read-out: Replicon.
Where [12] appears, read: ranges of EC50 in HCV replicon assay, read-out: Replicon.

Molecules are shown by their SMILES. Read-outs that look alike come from different tables or passages of the source. A value given as a limit tells only on which side of the number the result lay.

The term IC50 denotes the concentration at which inhibition is half-maximal. On to `CNC(=O)c1c(-c2ccc(F)cc2)oc2cc(O)c(O)cc12` [Example 192, 2-(4-Fluoro-phenyl)-5,6-dihydroxy-benzofuran-3-carboxylic acid methylamide], for which, in test [1] (setting [3]), the half-inhibitory concentration (IC50) was in the range of 5000 to 30000 nM. Besides, the EC50 in test [2] (setting [4]) was over 30 µM.

Turning to `CCNC(=O)c1c(-c2ccc(F)cc2)oc2cc(NS(C)(=O)=O)c(OC(C)C)cc12` [Example 200, 2-(4-Fluoro-phenyl)-5-isopropoxy-6-methanesulfonylamino-benzofuran-3-carboxylic acid ethylamide], in test [1] (setting [3]), the IC50 was at most 500 nM. For the same molecule, the EC50 in test [2] (setting [4]) was under 1 µM.

In the case of `CNC(=O)c1c(-c2ccc(F)cc2)oc2cc(OCc3nnnn3C)c(OC)cc12` [Example 211, 2-(4-Fluoro-phenyl)-5-methoxy-6-(1-methyl-1H-tetrazol-5-ylmethoxy)-benzofuran-3-carboxylic acid methylamide], the IC50 in test [1] (setting [3]) is at most 500 nM. The EC50 in test [2] (setting [4]) was under 1 µM.

Take `CNC(=O)c1c(-c2ccccc2)oc2ccc(C)cc12` [Example 9, 5-Methyl-2-phenyl-benzofuran-3-carboxylic acid methylamide]: the concentration for half-maximal inhibition (IC50) in test [1] (setting [5]) was in the range of 500 to 5000 nM. Moreover, the EC50 in test [2] (setting [6]) is under 10 µM.

Turning to `CCN(c1cc2oc(-c3ccc(F)cc3)c(C(=O)NC)c2cc1OCc1ccc2c(c1)C(=O)OC(C)(C)O2)S(C)(=O)=O` [Example 294], the IC50 in test [1] (setting [7]) was at most 500 nM. Moreover, the EC50 in test [2] (read-out: Replicon (μM)) is under 1 µM.

Take `CNC(=O)c1c(-c2ccc(F)cc2)oc2cc(N3CCOCC3)c(OCC(C)(C)O)cc12` [Example 250, 2-(4-Fluoro-phenyl)-5-(2-hydroxy-2-methyl-propoxy)-6-morpholin-4-ylbenzofuran-3-carboxylic acid methylamide]: the IC50 in test [1] (setting [7]) is 500 to 5000 nM. Further, the EC50 in test [2] (setting [8]) was under 10 µM.

In the case of `CNC(=O)c1c(-c2ccc(F)cc2)oc2cc(NS(C)(=O)=O)c(O)cc12` [Example 174, 2-(4-Fluoro-phenyl)-5-hydroxy-6-methanesulfonylamino-benzofuran-3-carboxylic acid methylamide], the IC50 in test [1] (setting [3]) fell in the range of 500 to 5000 nM. The EC50 in test [2] (setting [4]) is under 30 µM.

On to `CNC(=O)c1c(-c2ccc(F)cc2)oc2cc(N3CCOCC3)c(OCc3cccc(C(=O)O)c3)cc12` [Example 268, 3-[2-(4-Fluoro-phenyl)-3-methylcarbamoyl-6-morpholin-4-yl-benzofuran-5-yloxymethyl]-benzoic acid], for which, in test [1] (setting [7]), the IC50 was at most 500 nM. Further, the EC50 in test [2] (setting [8]) was under 10 µM.

`CCN(CC)c1nc(COc2cc3c(C(=O)NC)c(-c4ccc(F)cc4)oc3cc2N(C)S(C)(=O)=O)ns1` [Example 373, 5-(5-Diethylamino-[1,2,4]thiadiazol-3-ylmethoxy)-2-(4-fluoro-phenyl)-6-(methanesulfonyl-methyl-amino)-benzofuran-3-carboxylic acid methylamide]: the IC50 in test [1] (setting [9]) is at most 500 nM. For the same molecule, the EC50 in test [2] (setting [8]) is under 1 µM.

On to `CNC(=O)c1c(-c2ccc(F)cc2)oc2cc(C(C)(C)N)c(OC)cc12` [Example 384, 6-(1-Amino-1-methyl-ethyl)-2-(4-fluoro-phenyl)-5-methoxy-benzofuran-3-carboxylic acid methylamide], for which the IC50 in test [1] (setting [10]) was in the range of 500 to 5000 nM. The EC50 in test [2] (setting [11]) was under 30 µM.

Turning to `CNC(=O)c1c(-c2ccccc2)oc2ccc(OC)cc12` [Example 452, 5-Methoxy-2-phenyl-benzofuran-3-carboxylic acid methylamide], the IC50 in test [1] (HCV NS5B RdRp, BB7 (genotype 1b), reported as class symbols) is at most 500 nM. In test [2] (setting [8]), the EC50 was over 10 µM.

With `CNC(=O)c1c(-c2ccc(F)cc2)oc2cc(C(=O)O)c(OC(C)C)cc12` [Example 187, 2-(4-Fluoro-phenyl)-5-isopropoxy-3-methylcarbamoyl-benzofuran-6-carboxylic acid], in test [1] (setting [3]), the IC50 is 5000 to 30000 nM. Moreover, in test [2] (setting [4]), the EC50 is under 10 µM.

With `CNC(=O)c1c(-c2ccc(F)cc2)oc2cc(N3CCSCC3)c(OC(C)C)cc12` [Example 186, 2-(4-Fluoro-phenyl)-5-isopropoxy-6-thiomorpholin-4-yl-benzofuran-3-carboxylic acid methylamide], in test [1] (setting [3]), the IC50 was at most 500 nM. For the same molecule, in test [2] (setting [4]), the EC50 was under 1 µM.

With `CNC(=O)c1c(-c2ccc(F)cc2)oc2cc(-c3c(C)noc3C)c(OCc3cc(C)on3)cc12` [Example 409, 6-(3,5-Dimethyl-isoxazol-4-yl)-2-(4-fluoro-phenyl)-5-(5-methyl-isoxazol-3-ylmethoxy)-benzofuran-3-carboxylic acid methylamide], the IC50 in test [1] (setting [10]) is at most 500 nM. In addition, the EC50 in test [2] (setting [11]) was under 1 µM.

`CNC(=O)c1c(-c2ccc(F)cc2)oc2cc(C(C)(C)O)c(OC(C)C)cc12` [Example 202, 2-(4-Fluoro-phenyl)-6-(1-hydroxy-1-methyl-ethyl)-5-isopropoxy-benzofuran-3-carboxylic acid methylamide]: in test [1] (setting [3]), the IC50 was at most 500 nM. Further, in test [2] (setting [4]), the EC50 is under 1 µM.

`CCc1cc2c(C(=O)NC)c(-c3ccc(F)cc3)oc2cc1NS(C)(=O)=O` [Example 44, 5-Ethyl-2-(4-fluoro-phenyl)-6-methanesulfonylamino-benzofuran-3-carboxylic acid methylamide]: in test [1] (setting [5]), the IC50 is at most 500 nM. Besides, the EC50 in test [2] (setting [6]) was under 10 µM.

`C=CCOc1cc2c(C(=O)NC)c(-c3ccc(F)cc3)oc2cc1N(CC=C)S(C)(=O)=O` [Example 288, 6-(Allyl-methanesulfonyl-amino)-5-allyloxy-2-(4-fluoro-phenyl)-benzofuran-3-carboxylic acid methylamide]: the IC50 in test [1] (setting [7]) was at most 500 nM. Besides, the EC50 in test [2] (setting [8]) was under 1 µM.

As for `CCNc1cc2oc(-c3ccc(F)cc3)c(C(=O)NC)c2c(Cl)c1OC` [Example 363, 4-Chloro-6-ethylamino-2-(4-fluoro-phenyl)-5-methoxy-benzofuran-3-carboxylic acid mehtylamide], in test [1] (setting [9]), the IC50 was at most 500 nM. In test [2] (setting [8]), the EC50 is under 1 µM.

In the case of `CNC(=O)c1c(-c2ccc(C)cc2)oc2ccc(Cl)cc12` [Example 75, 5-Chloro-2-p-tolyl-benzofuran-3-carboxylic acid methylamide], the IC50 in test [1] (setting [5]) is at most 500 nM. Moreover, in test [2] (setting [6]), the EC50 was under 10 µM.

Consider `CNC(=O)c1c(-c2ccc(F)cc2)oc2cc(C)c(OC)cc12` [Example 81, 2-(4-Fluoro-phenyl)-5-methoxy-6-methyl-benzofuran-3-carboxylic acid methylamide], for which, in test [1] (setting [5]), the IC50 is at most 500 nM. In test [2] (setting [6]), the EC50 was under 10 µM.

Turning to `CNC(=O)c1c(-c2ccc(F)cc2)oc2cc(NS(C)(=O)=O)c(-c3cccs3)cc12` [Example 420, 2-(4-Fluoro-phenyl)-6-methanesulfonylamino-5-thiophen-2-yl-benzofuran-3-carboxylic acid methylamide], the IC50 in test [1] (setting [10]) was at most 500 nM. In test [2] (setting [11]), the EC50 was under 1 µM.

With `CNC(=O)c1c(-c2ccc(F)cc2)oc2cc(N3CCOCC3)c(OCC3CC3)cc12` [Example 125, 5-Cyclopropylmethoxy-2-(4-fluoro-phenyl)-6-morpholin-4-yl-benzofuran-3-carboxylic acid methylamide], the IC50 in test [1] (HCV NS5B RdRp, BB7 genotype 1b) is at most 500 nM. Also, the EC50 in test [2] (setting [12]) was under 1 µM.

Regarding `CNC(=O)c1c(-c2ccc(F)cc2)oc2cc(C(C)O)c(OC(C)C)cc12` (stereo not drawn) [Example 222, 2-(4-Fluoro-phenyl)-6-(1-hydroxy-ethyl)-5-isopropoxy-benzofuran-3-carboxylic acid methylamide], in test [1] (setting [3]), the half-maximal inhibitory concentration (IC50) is at most 500 nM. In addition, the EC50 in test [2] (setting [4]) was under 1 µM.

`CNC(=O)c1c(-c2ccc(F)cc2)oc2cc(-c3ccn[nH]3)c(OC(C)C)cc12` [Example 230, 2-(4-Fluoro-phenyl)-5-isopropoxy-6-(2H-pyrazol-3-yl)-benzofuran-3-carboxylic acid methylamide]: in test [1] (setting [3]), the IC50 was at most 500 nM. Moreover, in test [2] (setting [4]), the EC50 was under 10 µM.

On to `CNC(=O)c1c(-c2ccc(F)cc2)oc2cc(N(Cc3nc(C(=O)O)cs3)S(C)(=O)=O)c(OC(C)C)cc12` [Example 292, 2-({[2-(4-Fluoro-phenyl)-5-isopropoxy-3-methylcarbamoyl-benzofuran-6-yl]-methanesulfonyl-amino}-methyl)-thiazole-4-carboxylic acid], for which, in test [1] (setting [7]), the IC50 is at most 500 nM. Further, in test [2] (setting [8]), the EC50 was over 100 µM.

For `CNC(=O)c1c(-c2ccc(F)cc2)oc2cc(N(C)S(C)(=O)=O)c(OCc3cscn3)cc12` [Example 319, 2-(4-Fluoro-phenyl)-6-(methanesulfonyl-methyl-amino)-5-(thiazol-4-ylmethoxy)-benzofuran-3-carboxylic acid methylamide], the IC50 in test [1] (setting [7]) fell in the range of 500 to 5000 nM. In addition, in test [2] (setting [8]), the EC50 is under 1 µM.

For the molecule `CNC(=O)c1c(-c2ccc(F)cc2)oc2cc(S(=O)(=O)N3CCC(O)CC3)c(OC(C)C)cc12` [Example 169, 2-(4-Fluoro-phenyl)-6-(4-hydroxy-piperidine-1-sulfonyl)-5-isopropoxy-benzofuran-3-carboxylic acid methylamide], the IC50 in test [1] (HCV NS5B RdRp, BB7 genotype 1b) is at most 500 nM. Further, the EC50 in test [2] (setting [12]) was under 1 µM.
